In patent US20020055462A1, “Use” (priority 1999, published 2002):
“Also recorded” adds a separate entry of the source. One block for each compound: values may come before it.

Tests used:
[1] = test system: TNFα stimulated aromatase activity; conditions: high concentrations, 10-100 μM; cited from earlier work
[2] = test system: TNFα stimulated aromatase activity; test: TNFα-stimulated aromatase activity in cultured breast tissue fibroblasts; type: cell-based, human; conditions: for inhibition of TNFα-stimulated aromatase activity (in words): stromal fibroblasts from normal or malignant breast tissue; for inhibition of TNFα (20 ng/ml) stimulated aromatase activity, significance: compound 10 μM, p<0.001; for inhibition of TNFα-stimulated aromatase activity: fibroblasts derived from reduction mammoplasty tissue, 24 h pre-treatment, then TNFα plus dexamethasone for 48 h
Protocol: (§1) Inhibition of basal and TNFα-stimulated aromatase activity by paclitaxel (Pax) in breast tissue fibroblasts. Paclitaxel was added to cells which were cultured for 24 h in 2% stripped foetal calf serum. TNFα was added, in the presence of dexamethasone (100 nmol/l) and cells cultured for a further 48 h in the same medium. Controls and cells with paclitaxel, but not TNFα, were also cultured in the presence of dexamethasone for a 48 h period. Aromatase activity was measured in intact monolayers after washing cells with phosphate buffered saline. (means±SD, n=3; a, p<0.001 versus controls; b, p<0.001 versus TNFα-stimulated aromatase activity).
(§2) Samples of breast adipose or tumour tissue were obtained from women undergoing reduction mammoplasty or lumpectomy after obtaining their informed consent.
(§3) Fibroblasts were cultured as previously described (2). Briefly, they were cultured in Eagles' modified minimal essential medium containing Hepes buffer (20 mmol/l), 10% foetal calf serum (FCS) and supplements. Cells were routinely passaged 2-3 times after which replicate 25 cm^2 flasks were seeded with fibroblasts and grown to confluency.
(§4) At the end of the treatment period aromatase activity was measured in intact monolayers using [1β-^3H] androstenedione (15-30 Ci/mmol, NEN-Du Pont, Stevenage, Herts, UK) over a 3-20 h period (2, 3). The number of cells was measured by counting cell nuclei using a Coulter counter. Experiments were carried out in triplicate and results shown are representative of 2-3 investigations.

aromatase = test: Basal aromatase activity in intact monolayers of cultured breast tissue fibroblasts; type: cell-based, human; conditions: for inhibition of basal aromatase activity (in words): stromal fibroblasts from normal or malignant breast tissue; for inhibition of basal aromatase activity: fibroblasts derived from reduction mammoplasty tissue, 24 h pre-treatment then 48 h with dexamethasone 100 nmol/l
Protocol: as §1, §2, §3, §4

[3] = test system: IL-6 plus IL-6sR stimulated aromatase activity; test: IL-6 plus IL-6sR stimulated aromatase activity in breast fibroblasts; type: cell-based, human; conditions: for inhibition of stimulation of aromatase activity by IL-6 plus its soluble receptor (in words): breast fibroblasts; for inhibition of IL-6 plus IL-6sR (50 ng+100 ng/ml) stimulated aromatase activity, significance: compound 10 μM, p<0.001
Protocol: (§5) The experimental protocol used was as described in the legend to FIG. 1.
as §3, §4

[4] = test system: PGE2 stimulated aromatase activity; test: PGE2 stimulated aromatase activity in breast fibroblasts; type: cell-based, human; conditions: for inhibition of stimulation of aromatase activity by PGE2 (in words): breast fibroblasts; for inhibition of PGE2 (10 μM) stimulated aromatase activity, significance: compound 10 μM, p<0.001
Protocol: as §5, §3, §4

B16 melanoma = conditions: oral administration, mice; cited from earlier work
Meth A sarcoma = conditions: oral administration, mice; cited from earlier work
[5] = test system: MDA-MB-435 breast cancer cells; conditions: oral administration, mice; cited from earlier work
TNFα receptors = conditions: human macrophages; cited from earlier work

Compound: C[C@]12CC[C@@H]3c4ccc(O)cc4CC[C@H]3[C@@H]1CC[C@@H]2O [oestradiol]
inhibition of TNFα stimulated aromatase activity in adipose stromal cells [1]: can inhibit

Compound: C=C1[C@@H](C)[C@H]2[C@H](Cc3ccccc3)NC(=O)[C@]23OC(=O)/C=C/[C@H](O)CCC[C@@H](C)C/C=C/[C@H]3[C@@H]1O [Cytocholasin B]
inhibition of TNFα-stimulated aromatase activity (in words) [2]: without effect
inhibition of TNFα-stimulated aromatase activity (in words) ([2]; listed as cytocholasin B): unable to inhibit

Compound: TNFα
stimulation of aromatase activity ([2]; in the presence of dexamethasone, reduction mammoplasty fibroblasts): 375%

inhibition of TNFα stimulation of aromatase activity at 5 μM (in words) ([2]; compound at 5 μM): did not significantly reduce
inhibition of TNFα stimulation of aromatase activity at highest concentration tested (in words) ([2]; highest concentration tested): some inhibitory effect
inhibition of TNFα-stimulated aromatase activity (in words) [2]: less effective
inhibition of TNFα-stimulated aromatase activity (in words) ([2]; listed as 16α-hydroxy derivative of 2-meOE2): limited ability to suppress
Compound: COc1cc2c(cc1O)CC[C@@H]1[C@@H]2CC[C@]2(C)[C@@H](O)[C@H](O)C[C@@H]12 [2-meOE3, 2-methoxyoestriol]

Compound: COc1cc2c(cc1OS(N)(=O)=O)CCC1C2CC[C@]2(C)C(=O)CCC12 (stereo partly drawn) [2-MeOEMATE, 2-methoxyoestrone-3-O-sulphamate]
inhibition of basal aromatase activity (in words) (aromatase): inhibited; also recorded: reduced
inhibition of TNFα-stimulated aromatase activity (in words) [2]: inhibited; also recorded: reduced
inhibition of stimulation of aromatase activity by IL-6 plus its soluble receptor (in words) [3]: antagonise; also recorded: inhibited
inhibition of stimulation of aromatase activity by PGE2 (in words) [4]: antagonise; also recorded: inhibited

Compound: COc1cc2c(cc1O)CC[C@@H]1[C@@H]2CC[C@]2(C)[C@@H](O)CC[C@@H]12 [2-meOE2, 2-methoxyoestradiol]
inhibition of basal aromatase activity (aromatase): 46%
inhibition of basal aromatase activity (in words) (aromatase): inhibited
inhibition of TNFα (20 ng/ml) stimulated aromatase activity, significance [2]: significant
inhibition of TNFα stimulation of aromatase activity, dose-response study ([2]; compound at 0.1 μM): 51%
inhibition of TNFα-stimulated aromatase activity [2]: 56%
inhibition of TNFα-stimulated aromatase activity (in words) [2]: inhibited
inhibition of TNFα-stimulated aromatase activity (in words) ([2]; listed as 2-methoxyoestradiol): significantly inhibited
inhibition of IL-6 plus IL-6sR (50 ng+100 ng/ml) stimulated aromatase activity, significance [3]: significant
inhibition of stimulation of aromatase activity by PGE2 (in words) [4]: antagonise; also recorded: inhibited
inhibition of PGE2 (10 μM) stimulated aromatase activity, significance [4]: significant
tumour growth (B16 melanoma): significantly reduced
tumour growth (Meth A sarcoma): significantly reduced
tumour growth [5]: significantly reduced

Compound: COc1cc2c(c(OC)c1OC)-c1ccc(OC)c(=O)cc1[C@@H](NC(C)=O)CC2 [Colchicine]
inhibition of TNFα-stimulated aromatase activity (in words) [2]: without effect
inhibition of TNFα-stimulated aromatase activity (in words) ([2]; listed as colchicine): unable to inhibit

inhibition of basal aromatase activity (in words) (aromatase): inhibited
inhibition of TNFα (20 ng/ml) stimulated aromatase activity, significance [2]: significant
inhibition of TNFα-stimulated aromatase activity (in words) [2]: significantly inhibited
inhibition of TNFα-stimulated aromatase activity (in words) ([2]; listed as Paclitaxel): inhibited
inhibition of stimulation of aromatase activity by IL-6 plus its soluble receptor (in words) [3]: antagonise; also recorded: inhibited
inhibition of IL-6 plus IL-6sR (50 ng+100 ng/ml) stimulated aromatase activity, significance [3]: significant
inhibition of stimulation of aromatase activity by PGE2 (in words) [4]: antagonise; also recorded: inhibited
inhibition of PGE2 (10 μM) stimulated aromatase activity, significance [4]: significant
Compound: CC(=O)O[C@H]1C(=O)[C@@]2(C)[C@H]([C@H](OC(=O)c3ccccc3)[C@]3(O)C[C@H](OC(=O)[C@H](O)[C@@H](NC(=O)c4ccccc4)c4ccccc4)C(C)=C1C3(C)C)[C@]1(OC(C)=O)CO[C@@H]1C[C@@H]2O [paclitaxel]
inhibition of basal aromatase activity (aromatase): 88%
inhibition at 0.1 µM ([2]; Homo sapiens, Fibroblast, compound at 0.1 μM, read-out: inhibition of TNFα stimulation of aromatase activity, dose-response study): 90%
inhibition of TNFα-stimulated aromatase activity [2]: 91%
effect on TNFα receptors (TNFα receptors): rapidly down-regulate
